# Data reported in BindingDB's records for patent US11078201 (Nimbus Saturn, 2021).
# Molecular target: Mitogen-activated protein kinase kinase kinase kinase 1 (Homo sapiens, UniProt Q92918)
# Experiment: Biochemical Enzyme Assay
# Method: HPK1 biochemical enzyme assay: HPK1 enzyme inhibition was measured using a microfluidic mobility shift assay. […] Test compounds were titrated in ten point curves (top final assay concentration […]), and preincubated with enzyme/substrate mix for 30 min prior to initiation of the reaction by addition of ATP (1 mM final concentration) and substrate (1 μM final concentration; Carna Biosciences) diluted in assay buffer supplemented by MgCl2 (final assay concentration of 5 mM). Following 60 min incubation at RT, the reaction was terminated by addition of 60 µl/well termination buffer (Carna Biosciences) and signal determination using a Caliper EZ Reader (Perkin Elmer, UK).
# Chain of Mitogen-activated protein kinase kinase kinase kinase 1 (Q92918 whole entry): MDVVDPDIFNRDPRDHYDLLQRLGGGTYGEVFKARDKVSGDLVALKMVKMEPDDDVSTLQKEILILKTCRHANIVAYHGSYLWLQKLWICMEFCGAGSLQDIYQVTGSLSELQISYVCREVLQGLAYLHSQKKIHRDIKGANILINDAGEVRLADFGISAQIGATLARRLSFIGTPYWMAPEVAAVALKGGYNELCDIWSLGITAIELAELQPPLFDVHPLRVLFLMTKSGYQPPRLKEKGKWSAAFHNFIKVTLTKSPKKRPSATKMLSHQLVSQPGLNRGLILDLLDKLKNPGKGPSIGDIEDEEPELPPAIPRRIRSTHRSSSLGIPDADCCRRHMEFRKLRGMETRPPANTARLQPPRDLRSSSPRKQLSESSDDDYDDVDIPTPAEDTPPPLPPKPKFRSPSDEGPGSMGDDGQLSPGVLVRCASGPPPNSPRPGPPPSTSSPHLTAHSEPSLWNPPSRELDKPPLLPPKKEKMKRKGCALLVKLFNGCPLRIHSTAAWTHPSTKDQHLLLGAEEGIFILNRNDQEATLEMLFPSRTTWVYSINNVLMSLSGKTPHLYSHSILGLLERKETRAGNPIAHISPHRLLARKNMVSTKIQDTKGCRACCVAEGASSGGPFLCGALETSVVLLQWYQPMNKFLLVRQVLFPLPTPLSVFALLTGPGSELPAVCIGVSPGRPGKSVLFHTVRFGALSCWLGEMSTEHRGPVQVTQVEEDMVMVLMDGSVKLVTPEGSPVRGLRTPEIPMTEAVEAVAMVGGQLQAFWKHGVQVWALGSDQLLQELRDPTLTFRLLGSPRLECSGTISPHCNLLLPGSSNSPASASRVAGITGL
row,Structure (SMILES),IC50 [nM]
1,"CN1C=CC2=C(c3ncc(Nc4cccc(N5CC[C@H]6CNC[C@H]65)n4)c4c3CNC4=O)C=CNC21 (stereo partly specified) [US11078201, Compound I-440]",< 100
2,"Cn1ccc2c(-c3ncc(NC4C=CC(C5CCOC5)=C(CN5CCCC5)N4)c4c3CNC4=O)ccnc21 (stereo unspecified) [US11078201, Compound I-552]",< 100
3,"CO[C@@H]1CN(c2ccc(Nc3ccc(-c4cnn5c4CCCC5)c4c3C(=O)NC4)nc2)[C@@H](CO)CO1 [US11078201, Compound I-571]",< 100
4,"CN(C)Cc1nc(Nc2ccc(-c3cnc4cc(F)ccn34)c3c2C(=O)NC3)ccc1C1CC[C@@H](F)[C@H](O)C1 (stereo partly specified) [US11078201, Compound I-700]",< 100
5,"CN(C)Cc1nc(Nc2ccc(-c3cnc4cc(F)ccn34)c3c2C(=O)NC3)ccc1C1CC[C@H](F)[C@@H](O)C1 (stereo partly specified) [US11078201, Compound I-701]",< 100

# More lines, now with the values ahead:
row,IC50 [nM],Structure (SMILES)
1,< 100,"CN[C@@H]1CCCN(c2ccc(Nc3ccc(-c4ccnc5c4c(C)cn5C)c4c3C(=O)NC4)nc2)C1 [US11078201, Compound I-100]"
2,< 100,"Cn1cnc2c(-c3ccc(Nc4ccc(N5CCNCC5)cn4)c4c3CNC4=O)ccnc21 [US11078201, Compound I-122]"
3,< 100,"CN1CCN(C2=CNC(Nc3cnc(-c4c(-c5ccccc5)[nH]c5ccccc45)c4c3C(=O)NC4)C=C2)CC1 (stereo unspecified) [US11078201, Compound I-141]"
4,< 100,"O=C1NCc2c(-c3cnn4nccnc34)ccc(Nc3ccc(N4CCC(O)CC4)cn3)c21 [US11078201, Compound I-157]"
5,< 100,"O=C1NCc2c(-c3cnc4cc(F)ccn34)ccc(Nc3ccc(N4C[C@@H]5CC[C@@H](C5)C4)cn3)c21 [US11078201, Compound I-404]"
6,< 100,"O=C1NCc2c(-c3cnc4cc(F)ccn34)ccc(Nc3ccc(N4CC5CCC(C5)C4)cn3)c21 [US11078201, Compound I-405]"
